# Measurements reported in patent EP1923473B1, “Bis-diglycolamides (BISDGA) as new extractants for lanthanides [Ln(III)] and actinides [An(III)] from aqueous high-level wastes” (Universidad Autónoma de Madrid, priority 2006, dated 2008).
# Columns and labels:
# [1] = Batch extraction from simulated HLLW from the PUREX process; format: physicochemical; conditions: 0.1 mol/L in TPH/1-octanol (90:10)
# Description: (§1) The feed solution used for the extraction tests is a simulated solution of an HLLW from the PUREX process, the composition of which is shown in Table 4. Table 4: Composition of the simulated HLLW-PUREX solution used for the extraction tests
# (§2) The composition of the HLLW corresponds to a burn-up of 33 GWd/tHM, the generated volume of HLLW being 5000 1/t of fuel. The feed was spiked with ^241Am, ^244Cm, ^252Cf and ^152Eu. Oxalic acid and N-(2-hydroxyethyl)ethylenediaminotriacetate (HEDTA) were also added before the extraction tests.
# (§3) 500 µL of the aqueous and organic phases were spiked with 10 µL of a tracer solution containing 241Am, 244Cm, 252Cf and ^152Eu, and were equilibrated for 10 minutes while they were stirred vigorously in a vortex stirrer. After the separation of the phases by centrifugation, 200 µL aliquots of each phase were taken for the determination of the concentration of ^241Am and ^152Eu using a high-purity germanium spectrometer system (EG&G Ortec). The nuclides ^241Am, ^244Cm and ^252Cf were measured by alpha spectrometry with an α-Analyst device of the company Canberra-Packard GmbH, Germany.
# (§4) The concentrations of the stable elements were determined by mass spectrometry with an inductively coupled plasma source (ICP-MS) in a DRC Elan 6100 device of Perkin Elmer Sciex. The aqueous phase was measured directly after the appropriate dilution. The organic phase was analyzed after having mineralized the organic matter by microwave acid digestion and subsequent dilution.
# (§5) The distribution coefficients were calculated for each element according to section C).
# (§6) A 0.1 mol/L solution of compound 4 in the "TPH/1-octanol (90:10)%vol" mixture was prepared. Extraction experiments were carried out with said simulated HLLW in a pure form and also adding oxalic acid and HEDTA to it. These complexing agents have shown to be effective in the DIAMEX process for the complexing of Mo, Zr (H2C2O4) and Pd (HEDTA).
# (§7) Extraction experiments were carried out with said simulated HLLW in a pure form and also adding oxalic acid and HEDTA to it.
# [2] = Batch extraction from simulated HLLW from the PUREX process, gamma spectrometry; format: physicochemical; conditions: 0.1 mol/L in TPH/1-octanol (90:10)
# Description: as §1, §2, §3, §4, §5, §6, §7
# [3] = Oxalic acid 0.2 mol/L, HEDTA 0.05 mol/L, TBP 0.5 mol/L
# [4] = Oxalic acid 0.2 mol/L, HEDTA 0.05 mol/L, TBP No
# [5] = Oxalic acid 0.3 mol/L, HEDTA 0.05 mol/L, TBP 0.5 mol/L
# [6] = Oxalic acid 0.3 mol/L, HEDTA 0.05 mol/L, TBP No
# [7] = Oxalic acid No, HEDTA No, TBP 0.5 mol/L
# [8] = Oxalic acid No, HEDTA No, TBP No
substance,measurement,setting,value
2-Dioctylcarbamoylmethoxy-N-[3-[(2-dioctylcarbamoyl-methoxy-acetylamino)methyl]benzyl]acetamide [Compound 4],Distribution coefficients Ag,[1]; [3],0.013
same,Distribution coefficients Ba,[1]; [3],0.0002
same,Distribution coefficients Cd,[1]; [3],0.035
same,Distribution coefficients Ce,[1]; [3],16
same,Distribution coefficients Cf-252,[1]; [3],702
same,Distribution coefficients Cm-244,[1]; [3],83
same,Distribution coefficients Cs,[1]; [3],0.000087
same,Distribution coefficients Eu,[1]; [3],362
same,Distribution coefficients Eu-152,[1]; [3],430
same,Distribution coefficients Gd,[1]; [3],91
same,Distribution coefficients La,[1]; [3],10
same,Distribution coefficients Mo,[1]; [3],0.065
same,Distribution coefficients Nd,[1]; [3],52
same,Distribution coefficients Pd,[1]; [3],0.081
same,Distribution coefficients Pr,[1]; [3],26
same,Distribution coefficients Rb,[1]; [3],0.0082
same,Distribution coefficients Rh,[1]; [3],0.00068
same,Distribution coefficients Ru,[1]; [3],0.29
same,Distribution coefficients Sm,[1]; [3],253
same,Distribution coefficients Y,[1]; [3],1698
same,Distribution coefficients Zr,[1]; [3],0.062
same,Distribution coefficients Ag,[1]; [4],0.013
same,Distribution coefficients Ba,[1]; [4],0.00019
same,Distribution coefficients Cd,[1]; [4],0.034
same,Distribution coefficients Ce,[1]; [4],36
same,Distribution coefficients Cf-252,[1]; [4],2057
same,Distribution coefficients Cm-244,[1]; [4],262
same,Distribution coefficients Cs,[1]; [4],0.000087
same,Distribution coefficients Eu,[1]; [4],764
same,Distribution coefficients Eu-152,[1]; [4],379
same,Distribution coefficients Gd,[1]; [4],239
same,Distribution coefficients La,[1]; [4],21
same,Distribution coefficients Mo,[1]; [4],0.087
same,Distribution coefficients Nd,[1]; [4],142
same,Distribution coefficients Pd,[1]; [4],0.073
same,Distribution coefficients Pr,[1]; [4],59
same,Distribution coefficients Rb,[1]; [4],0.0093
same,Distribution coefficients Rh,[1]; [4],0.00086
same,Distribution coefficients Ru,[1]; [4],0.29
same,Distribution coefficients Sm,[1]; [4],690
same,Distribution coefficients Y,[1]; [4],1766
same,Distribution coefficients Zr,[1]; [4],0.096
same,Distribution coefficients Ag,[1]; [5],0.012
same,Distribution coefficients Ba,[1]; [5],0.0002
same,Distribution coefficients Cd,[1]; [5],0.036
same,Distribution coefficients Ce,[1]; [5],21
same,Distribution coefficients Cf-252,[1]; [5],1403
same,Distribution coefficients Cm-244,[1]; [5],133
same,Distribution coefficients Cs,[1]; [5],0.000087
same,Distribution coefficients Eu,[1]; [5],446
same,Distribution coefficients Eu-152,[1]; [5],348
same,Distribution coefficients Gd,[1]; [5],190
same,Distribution coefficients La,[1]; [5],13.7
same,Distribution coefficients Mo,[1]; [5],0.094
same,Distribution coefficients Nd,[1]; [5],68
same,Distribution coefficients Pd,[1]; [5],0.041
same,Distribution coefficients Pr,[1]; [5],32
same,Distribution coefficients Rb,[1]; [5],0.0081
same,Distribution coefficients Rh,[1]; [5],0.00067
same,Distribution coefficients Ru,[1]; [5],0.24
same,Distribution coefficients Sm,[1]; [5],378
same,Distribution coefficients Y,[1]; [5],1658
same,Distribution coefficients Zr,[1]; [5],0.022
same,Distribution coefficients Ag,[1]; [6],0.013
same,Distribution coefficients Ba,[1]; [6],0.0002
same,Distribution coefficients Cd,[1]; [6],0.037
same,Distribution coefficients Ce,[1]; [6],32
same,Distribution coefficients Cf-252,[1]; [6],1816
same,Distribution coefficients Cm-244,[1]; [6],286
same,Distribution coefficients Cs,[1]; [6],0.000604
same,Distribution coefficients Eu,[1]; [6],513
same,Distribution coefficients Eu-152,[1]; [6],553
same,Distribution coefficients Gd,[1]; [6],258
same,Distribution coefficients La,[1]; [6],18
same,Distribution coefficients Mo,[1]; [6],0.115
same,Distribution coefficients Nd,[1]; [6],120
same,Distribution coefficients Pd,[1]; [6],0.043
same,Distribution coefficients Pr,[1]; [6],53
same,Distribution coefficients Rb,[1]; [6],0.0082
same,Distribution coefficients Rh,[1]; [6],0.00069
same,Distribution coefficients Ru,[1]; [6],0.17
same,Distribution coefficients Sm,[1]; [6],451
same,Distribution coefficients Y,[1]; [6],1708
same,Distribution coefficients Zr,[1]; [6],0.099
same,Distribution coefficients Ag,[1]; [7],39
same,Distribution coefficients Ba,[1]; [7],0.00019
same,Distribution coefficients Cd,[1]; [7],0.033
same,Distribution coefficients Ce,[1]; [7],16
same,Distribution coefficients Cf-252,[1]; [7],692
same,Distribution coefficients Cm-244,[1]; [7],95
same,Distribution coefficients Cs,[1]; [7],0.000082
same,Distribution coefficients Eu,[1]; [7],327
same,Distribution coefficients Eu-152,[1]; [7],294
same,Distribution coefficients Gd,[1]; [7],122
same,Distribution coefficients La,[1]; [7],10
same,Distribution coefficients Mo,[1]; [7],0.066
same,Distribution coefficients Nd,[1]; [7],55
same,Distribution coefficients Pd,[1]; [7],2.6
same,Distribution coefficients Pr,[1]; [7],26
same,Distribution coefficients Rb,[1]; [7],0.0080
same,Distribution coefficients Rh,[1]; [7],0.00069
same,Distribution coefficients Ru,[1]; [7],0.27
same,Distribution coefficients Sm,[1]; [7],233
same,Distribution coefficients Y,[1]; [7],1773
same,Distribution coefficients Zr,[1]; [7],295
same,Distribution coefficients Ag,[1]; [8],37
same,Distribution coefficients Ba,[1]; [8],0.00019
same,Distribution coefficients Cd,[1]; [8],0.034
same,Distribution coefficients Ce,[1]; [8],23
same,Distribution coefficients Cf-252,[1]; [8],2079
same,Distribution coefficients Cm-244,[1]; [8],191
same,Distribution coefficients Cs,[1]; [8],0.000084
same,Distribution coefficients Eu,[1]; [8],685
same,Distribution coefficients Eu-152,[1]; [8],293
same,Distribution coefficients Gd,[1]; [8],166
same,Distribution coefficients La,[1]; [8],13
same,Distribution coefficients Mo,[1]; [8],0.069
same,Distribution coefficients Nd,[1]; [8],94
same,Distribution coefficients Pd,[1]; [8],2.5
same,Distribution coefficients Pr,[1]; [8],39
same,Distribution coefficients Rb,[1]; [8],0.0078
same,Distribution coefficients Rh,[1]; [8],0.00066
same,Distribution coefficients Ru,[1]; [8],0.25
same,Distribution coefficients Sm,[1]; [8],615
same,Distribution coefficients Y,[1]; [8],1753
same,Distribution coefficients Zr,[1]; [8],133
same,"Distribution coefficients Am-241, γ",[2]; [3],63
same,"Distribution coefficients Am-241, γ",[2]; [4],131
same,"Distribution coefficients Am-241, γ",[2]; [5],82
same,"Distribution coefficients Am-241, γ",[2]; [6],141
same,"Distribution coefficients Am-241, γ",[2]; [7],70
same,"Distribution coefficients Am-241, γ",[2]; [8],99
